According to patent US5225437A, “1,2,4-trioxane compounds having antimalarial activity” (The Johns Hopkins University, priority 1992, dated 1993):
Entries after “also recorded” stand apart in the source; their conditions may differ. Where two headings read alike, the source gives them in different places.

Legend:
[1] = system: P. falciparum malaria parasite clone Indochina (W-2); assay: in vitro susceptibility testing, uptake of tritiated hypoxanthine as index of inhibition of parasite growth, Indochina (W-2) clone; format: cell-based; details: Plasmodium falciparum; for IC50: read-out: W2 IC50
[2] = system: P. falciparum malaria parasite clone Sierra Leone (D-6); assay: in vitro susceptibility testing, uptake of tritiated hypoxanthine as index of inhibition of parasite growth, Sierra Leone (D-6) clone; details: Plasmodium falciparum; for IC50: read-out: D6 IC50
W-2 Indochine Clone = details: cited from earlier work; for IC50: Table V, read-out: Fifty Percent Inhibitory Concentrations, W-2 Indochine Clone; for Artemisinin Indices, W-2 Indochine Clone: intrinsic equimolar activity relative to the simultaneous artemisinin control
D-6 Sierra Leone Clone = details: cited from earlier work; for IC50: Table V, read-out: Fifty Percent Inhibitory Concentrations, D-6 Sierra Leone Clone; for Artemisinin Indices, D-6 Sierra Leone Clone: intrinsic equimolar activity relative to the simultaneous artemisinin control
[3] = system: P. falciparum malaria parasite clones; assay: anti-malarial activity in words (overall, both P. falciparum clones)
[4] = system: P. falciparum D-6 African Clone; assay: anti-malarial in vitro testing against P. falciparum clones, D-6 African clone; format: cell-based; details: Table VI, D-6 value over W-2 value
[5] = compared with known anti-malarial drugs
[6] = Table IV, W2, read-out: W2 IC90
[7] = Table III, INDOCHINA CLONE (W-2), read-out: IC90

Structure (SMILES) | IC50 [2] [nM] | IC50 (W-2 Indochine Clone) [nM] | Artemisinin Indices, W-2 Indochine Clone (W-2 Indochine Clone) | IC50 ([1]; Table IV, W2) [nM] | IC50 (D-6 Sierra Leone Clone) [nM] | Artemisinin Indices, D-6 Sierra Leone Clone (D-6 Sierra Leone Clone) | IC90 [2] [nM] | other results
CCOP(=O)(COCCC1CCCC2CCC3(C)OOC12C(OC)O3)OCC (stereo not shown) [Compound 103] | 3.03 | – | – | – | – | – | – | IC50 [1]: 0.96 nM; IC90 ([1]; read-out: W2 IC90): 8.2 nM; IC90 ([2]; read-out: D6 IC90): 29.9 nM
OC(c1cc(C(F)(F)F)nc2c(C(F)(F)F)cccc12)C1CCCCN1 (stereo not shown) [Mefloquine] | 3.53 | 5.75 | 1.11 | 0.11 | 33.4 | 0.31 | – | –
COC(=O)c1ccc(C(=O)OCCC2CCCC3CCC4(C)OOC23C(OC)O4)cc1 (stereo not shown) [Compound 19] | – | – | – | – | – | – | – | anti-malarial activity / potency in words [3, 5]: substantial improvement over artemisinin; also recorded: comparable in potency to arteether; also recorded: comparable in potency to artemether; also recorded: considerably higher potency than the clinically used Chinese drug, artemisinin
CCc1nc(N)nc(N)c1-c1ccc(Cl)cc1 [Pyrimethamine] | 1.08 | 176 | 0.03 | > 250 | 0.4 | 26.11 | – | –
COC1OC2(C)CCC3CCCC(CCI)C31OO2 (stereo not shown) [Compound 301] | 1.14 | – | – | < 0.32 | – | – | – | IC90 [1, 6]: < 0.32 nM; IC90 ([2]; read-out: D6 IC90): 6.33 nM
COC(=O)c1ccccc1S(=O)(=O)OCCC1CCCC2CCC3(C)OOC12C(OC)O3 (stereo not shown) [Compound 24] | – | – | – | – | – | – | 58.8 | IC90 [1, 7]: 19.7 nM
CCN(CC)CCCC(C)Nc1ccnc2cc(Cl)ccc12 (stereo not shown) [Chloroquine] | 1.21 | 100 | 0.06 | – | 10.8 | 0.97 | – | IC50 [1]: 61.7 nM; Ratio of D-6/W-2 [4]: 0.1
COC1OC2(C)CCC3CCCC(CCOC(=O)c4ccc(C(=O)OCCC5CCCC6CCC7(C)OOC56C(OC)O7)cc4)C31OO2 (stereo not shown) [Compound 22] | – | – | – | – | – | – | 857 | –
CCO[C@@H]1O[C@@H]2O[C@@]3(C)CC[C@H]4[C@H](C)CC[C@@H]([C@H]1C)[C@@]24OO3 [Arteether (alpha)] | – | 3.07 | 2.08 | – | 4.18 | 2.52 | – | –
COC1OC2(C)CCC3CCCC(CCOCc4ccccc4)C31OO2 (stereo not shown) [Compound 102] | 1.22 | – | – | 0.25 | – | – | – | IC90 [1, 6]: 1.53 nM; anti-malarial activity / potency in words [3, 5]: particularly potent anti-malarial activity; IC90 ([2]; read-out: D6 IC90): 3.27 nM
COC1OC2(C)CCC3CCCC(CCOCc4c(C)noc4C)C31OO2 (stereo not shown) [Compound 105] | 1.82 | – | – | 0.34 | – | – | – | IC90 [1, 6]: 1.64 nM; anti-malarial activity / potency in words [3, 5]: particularly potent anti-malarial activity; IC90 ([2]; read-out: D6 IC90): 19.1 nM
C=CCOCCC1CCCC2CCC3(C)OOC12C(OC)O3 (stereo not shown) [Compound 104] | 1.08 | – | – | 0.32 | – | – | – | IC90 [1, 6]: 2.37 nM; anti-malarial activity / potency in words [3, 5]: particularly potent anti-malarial activity; IC90 ([2]; read-out: D6 IC90): 15.7 nM
C[C@@H]1CC[C@H]2[C@@H](C)C(=O)O[C@@H]3O[C@@]4(C)CC[C@@H]1[C@]32OO4 [Artemisinin, artemisinin] | 0.69 | 6.41 | 1.00 | 0.68 | 10.5 | 1.00 | – | Ratio of D-6/W-2 [4]: 2.4
COC1OC2(C)CCC3CCCC(CCOC(=O)N(c4ccccc4)c4ccccc4)C31OO2 (stereo not shown) [Compound 31] | 0.27 | – | – | < 0.16 | – | – | – | IC90 [1, 6]: < 0.18 nM; anti-malarial activity / potency in words [3, 5]: substantial improvement over artemisinin; also recorded: comparable in potency to arteether; also recorded: higher potency than artemisinin; also recorded: particularly potent; IC90 ([2]; read-out: D6 IC90): 2.25 nM
CCCCN(CCCC)CCC(O)c1cc2c(Cl)cc(Cl)cc2c2cc(C(F)(F)F)ccc12 (stereo not shown) [Halofantrine] | – | 0.76 | 8.43 | – | 7.8 | 1.35 | – | –
COC1OC2(C)CCC3CCCC(CCOS(=O)(=O)c4cccc5c(N(C)C)cccc45)C31OO2 (stereo not shown) [Compound 32] | 5.16 | – | – | 1.04 | – | – | – | IC90 [1, 6]: 7.17 nM; IC90 ([2]; read-out: D6 IC90): 10 nM

Structure (SMILES) | IC50 [2] [nM] | IC50 (W-2 Indochine Clone) [nM] | Artemisinin Indices, W-2 Indochine Clone (W-2 Indochine Clone) | IC50 ([1]; Table IV, W2) [nM] | IC50 (D-6 Sierra Leone Clone) [nM] | Artemisinin Indices, D-6 Sierra Leone Clone (D-6 Sierra Leone Clone) | IC90 [2] [nM] | other results
COC1OC2(C)CCC3CCCC(CCOC(=O)N(C)C)C31OO2 (stereo not shown) [Compound 26] | – | – | – | – | – | – | 3.93 | IC90 [1, 7]: 1.29 nM; anti-malarial activity / potency in words [3, 5]: particularly potent
COc1ncnc(NS(=O)(=O)c2ccc(N)cc2)c1OC [Sulfadoxine] | – | 80600 | < 0.01 | – | 89.4 | 0.11 | – | –
COC1OC2(C)CCC3CCCC(CCOC(=O)c4ccc(C(=O)OCCN(C)C)cc4)C31OO2 (stereo not shown) [Compound 20] | – | – | – | – | – | – | 20.4 | IC90 [1, 7]: 24.7 nM
C[C@H]1[C@@H](OCc2ccc(C(=O)O)cc2)O[C@@H]2O[C@@]3(C)CC[C@H]4[C@H](C)CC[C@@H]1[C@@]24OO3 [Artelinic Acid] | – | 3.3 | 1.94 | – | 9.73 | 1.08 | – | –
COC1OC2(C)CCC3CCCC(CCOS(=O)(=O)c4ccc(C)cc4)C31OO2 (stereo not shown) [Compound 23] | – | – | – | – | – | – | 19 | IC90 [1, 7]: 10.2 nM
COC1OC2(C)CCC3CCCC(CCOS(=O)(=O)N(C)C)C31OO2 (stereo not shown) [Compound 27] | – | – | – | – | – | – | 30.2 | IC90 [1, 7]: 23 nM
C=C[C@H]1C[N@@]2CC[C@H]1C[C@H]2[C@H](O)c1ccnc2ccc(OC)cc12 [Quinine] | – | – | – | – | – | 0.09 | – | –
COC1OC2(C)CCC3CCCC(CCOC(=O)c4ccc(C(=O)O)cc4)C31OO2 (stereo not shown) [Compound 36] | 256 | – | – | 24.2 | – | – | 115 | IC90 [1, 7]: 46.1 nM; IC90 [1, 6]: 979 nM; IC90 ([2]; read-out: D6 IC90): 516 nM
CCN(CC)C(=O)OCCC1CCCC2CCC3(C)OOC12C(OC)O3 (stereo not shown) [Compound 34] | 0.39 | – | – | < 0.28 | – | – | – | IC90 [1, 6]: < 0.28 nM; anti-malarial activity / potency in words [3, 5]: comparable in potency to arteether; also recorded: higher potency than artemisinin; also recorded: particularly potent; IC90 ([2]; read-out: D6 IC90): 1.18 nM
C[C@H]1[C@@H](O)O[C@@H]2O[C@@]3(C)CC[C@H]4[C@H](C)CC[C@@H]1[C@@]24OO3 [Dihydroartemisinin] | – | 1.79 | 3.58 | – | 1.83 | 5.75 | – | –
COCCC1CCCC2CCC3(C)OOC12C(OC)O3 (stereo not shown) [Compound 101] | – | – | – | – | – | – | 13.7 | IC90 [1, 7]: 4.62 nM
COC1OC2(C)CCC3CCCC(CCOC(=O)CNC(=O)OC(C)(C)C)C31OO2 (stereo not shown) [Compound 25] | – | – | – | – | – | – | 4.43 | anti-malarial activity / potency in words [3, 5]: substantial improvement over artemisinin
CCOP(=O)(OCC)OCCC1CCCC2CCC3(C)OOC12C(OC)O3 (stereo not shown) [Compound 28] | – | – | – | – | – | – | 0.99 | anti-malarial activity / potency in words [3]: substantial improvement over artemisinin; also recorded: comparable in potency to arteether; also recorded: higher potency than artemisinin; also recorded: particularly potent
CO[C@H]1O[C@@H]2O[C@@]3(C)CC[C@H]4[C@H](C)CC[C@@H]([C@H]1C)[C@@]24OO3 [Artemether] | – | 3.34 | 1.92 | – | 4.49 | 2.34 | – | –
CCN(CC)C(=O)c1ccc(C(=O)OCCC2CCCC3CCC4(C)OOC23C(OC)O4)cc1 (stereo not shown) [Compound 21] | – | – | – | – | – | – | – | anti-malarial activity / potency in words [3, 5]: substantial improvement over artemisinin; also recorded: comparable in potency to arteether; also recorded: comparable in potency to artemether; also recorded: considerably higher potency than the clinically used Chinese drug, artemisinin
CCO[C@H]1O[C@@H]2O[C@@]3(C)CC[C@H]4[C@H](C)CC[C@@H]([C@H]1C)[C@@]24OO3 [Arteether (beta)] | – | 2.97 | 2.18 | – | 4.07 | 2.58 | – | –
